# Experimental data as given in PubChem BioAssay (NCI).
#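 A five-concentration, 48-hour dose response in 96-well plates underlies each endpoint, interpolated linearly between surrounding concentrations. TGI denotes the concentration required for complete inhibition of growth.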 Where a SMILES comes first, the peptide text is derived from it. The star is where a group is joined. Boc = CC(C)(C)OC(=O)*
# Key:
# Assay in all cases: NCI-60 cell line screen, 48 h
# SW-620 colon = system: SW-620 colon
# 786-0 renal = system: 786-0 renal
# OVCAR-3 ovarian = system: OVCAR-3 ovarian
# SN12C renal = system: SN12C renal
# K-562 leukemia = system: K-562 leukemia
# HOP-92 NSCLC = system: HOP-92 NSCLC
# HCC-2998 colon = system: HCC-2998 colon
# COLO 205 colon = system: COLO 205 colon
# RPMI-8226 leukemia = system: RPMI-8226 leukemia
# CCRF-CEM leukemia = system: CCRF-CEM leukemia
# ACHN renal = system: ACHN renal
# LOX IMVI melanoma = system: LOX IMVI melanoma
# M14 melanoma = system: M14 melanoma
# HCT-116 colon = system: HCT-116 colon
# SNB-19 CNS = system: SNB-19 CNS
# DU-145 prostate = system: DU-145 prostate
# PC-3 prostate = system: PC-3 prostate
# MDA-MB-231 breast = system: MDA-MB-231 breast
# SF-295 CNS = system: SF-295 CNS
# NCI/ADR-RES ovarian = system: NCI/ADR-RES ovarian
Compound,TGI (SW-620 colon) [µM],TGI (786-0 renal) [µM],TGI (OVCAR-3 ovarian) [µM],TGI (SN12C renal) [µM],TGI (K-562 leukemia) [µM],TGI (HOP-92 NSCLC) [µM],TGI (HCC-2998 colon) [µM],TGI (COLO 205 colon) [µM],TGI (RPMI-8226 leukemia) [µM],TGI (CCRF-CEM leukemia) [µM],TGI (ACHN renal) [µM],TGI (LOX IMVI melanoma) [µM],TGI (M14 melanoma) [µM],TGI (HCT-116 colon) [µM],TGI (SNB-19 CNS) [µM],TGI (DU-145 prostate) [µM],TGI (PC-3 prostate) [µM],TGI (MDA-MB-231 breast) [µM],TGI (SF-295 CNS) [µM],TGI (NCI/ADR-RES ovarian) [µM]
COc1c2c(c(OC)c3c(=O)cc(C/C(=N/NC(=O)C[n+]4ccccc4)C(=O)Nc4cc(C)ccc4C)oc13)OCO2,> 100,> 100,> 100,> 100,> 100,> 100,> 100,> 100,> 100,> 100,> 100,> 100,> 100,> 100,> 100,,,,,
CC1CC/C(=C\c2ccc(Cl)cc2)C(=O)/C1=C\c1ccc(Cl)cc1 (stereo not drawn),> 100,> 100,,95.5,> 100,> 100,,73,,> 100,> 100,> 100,48.8,> 100,,> 100,> 100,> 100,,
CN(OC(=O)CC(=O)c1ccccc1)C(=O)Cc1ccccc1,> 100,> 100,> 100,> 100,,,,> 100,> 100,> 100,> 100,> 100,> 100,> 100,> 100,,,,> 100,
CCCOP1(=O)C=C(C)C(Cl)=C(C)C1 (stereo not drawn),35.5,36.7,70.3,58.6,> 100,48.6,> 100,24.4,35.5,59.3,52.5,36.1,32.5,47.5,> 100,,,,> 100,
CC1=CC(=C(c2ccc(N)c(C)c2)c2ccc(N)c(C)c2)C=CC1=N,17.7,21.1,16.7,4.31,22.5,14.2,14.4,5.87,29.6,23,69.2,15.3,18.3,13.3,15.8,,,,11.7,
COC(=O)C(Cc1c[nH]c2ccccc12)NC(=O)C(Cc1c[nH]c2ccccc12)NC(=O)C(Cc1c[nH]c2ccccc12)NC(=O)C(Cc1c[nH]c2ccccc12)NC(=O)C(Cc1c[nH]c2ccccc12)NC(=O)OC(C)(C)C (stereo not drawn) (Boc-WWWWW-OMe; configuration not given here),> 100,> 100,> 100,> 100,> 100,,> 100,,> 100,> 100,> 100,> 100,> 100,> 100,> 100,> 100,> 100,> 100,,
CC12CC(=O)OC(Cc3ccccc31)O2 (stereo not drawn),> 100,> 100,> 100,> 100,> 100,> 100,> 100,> 100,> 100,> 100,> 100,> 100,> 100,> 100,> 100,,,,> 100,
N#CC12CCC(O)C(CC1)C2=O (stereo not drawn),,> 100,> 100,> 100,> 100,,> 100,> 100,57.1,> 100,> 100,39.3,> 100,> 100,> 100,,,,> 100,
CCC(C)C1=C(O)[N+]2([O-])Oc3ccc(-c4c(O)c(O)c(-c5ccc(O)cc5)c(OC(C)=O)c4OC(C)=O)cc3OC2(C(C)CC)C(=O)N1O (stereo not drawn),> 50,> 50,> 50,> 50,> 50,,,> 50,> 50,9.65,> 50,> 50,> 50,> 50,> 50,> 50,> 50,> 50,> 50,> 50
CCOC(=O)C12C3CCC1C2C(=O)C3 (stereo not drawn),> 100,> 100,> 100,> 100,> 100,,> 100,> 100,> 100,> 100,> 100,> 100,> 100,> 100,> 100,> 100,> 100,> 100,> 100,> 100
COc1cc(/C=C2\N=C(c3ccccc3)N(c3ccc(S(=O)(=O)Nc4nccs4)cc3)C2=O)ccc1O,> 100,> 100,> 100,> 100,> 100,> 100,,> 100,> 100,> 100,> 100,> 100,> 100,> 100,> 100,> 100,> 100,,> 100,> 100
COc1cc2c(cc1C)NC(=O)/C2=C\c1cccnc1,84.8,> 100,33.6,37.8,> 100,59.5,21.6,39.8,55.5,> 100,> 100,> 100,77,> 100,40.4,54.3,> 100,,35,36.8
O=c1ccc(-c2ccc(-n3ccnc3)cc2)nn1CCO,> 100,> 100,> 100,> 100,,> 100,> 100,> 100,> 100,> 100,> 100,,> 100,> 100,> 100,> 100,> 100,,> 100,
O=[N+]([O-])/C(C(Cl)=C(Cl)Cl)=C(\Nc1cccc2cccnc12)Sc1ccccc1,31.9,49.7,28.3,87.7,84.5,,> 100,31.6,> 100,> 100,71.1,,> 100,39,> 100,78.4,80.5,> 100,51.4,63.5
CC1=CCP(C(F)(F)F)P(C(F)(F)F)C1 (stereo not drawn),> 100,> 100,> 100,> 100,> 100,> 100,> 100,> 100,> 100,> 100,> 100,> 100,> 100,> 100,> 100,,,,> 100,
C[C@@H]1C(=O)O[C@@H]2C[C@@]1(C)[C@@H]1C(=O)C3(O)OC14C2(C)OC(=O)[C@@]4(O)CCC1C3C(O)C=C2CC=CC(=O)[C@@]21C (stereo partly drawn),> 100,> 100,,> 100,> 100,,> 100,> 100,61.3,40.7,> 100,,90.8,48.2,37.8,> 100,> 100,> 100,83.7,> 100
[N-]=[N+]=NC1(c2ccccc2)C(=O)c2cccc3c4ccccc4n(c23)C1=O (stereo not drawn),> 100,> 100,> 100,> 100,,,> 100,38.7,> 100,> 100,> 100,> 100,> 100,> 100,> 100,> 100,> 100,> 100,> 100,> 100
COC(=O)CC[N+]1([O-])CC1,> 100,> 100,,> 100,,> 100,> 100,> 100,> 100,> 100,> 100,> 100,> 100,> 100,> 100,> 100,,> 100,> 100,> 100
C(=C\c1ccccc1)/Cn1nc(-c2ccccc2)nc1-c1cnccn1,> 100,> 100,> 100,> 100,> 100,> 100,> 100,> 100,> 100,> 100,,> 100,> 100,> 100,> 100,> 100,> 100,> 100,> 100,
CCOC(=O)Nn1cnnc1Cc1ccccc1,> 100,> 100,> 100,> 100,> 100,> 100,> 100,> 100,> 100,> 100,> 100,> 100,> 100,> 100,> 100,,> 100,> 100,> 100,> 100
CN1NC2=NCCN=C3NN(C)C(=NCCN=C1S2)S3,> 100,> 100,,> 100,> 100,> 100,,> 100,> 100,> 100,> 100,> 100,> 100,> 100,> 100,,,,> 100,
CC[N+](C)(C)c1ccc(C(=C2C=CC(=[N+](C)C)C=C2)c2ccc(N(C)C)cc2)cc1,52.1,29,22.5,> 100,15.2,54.8,32.3,> 100,7.36,33.5,62.1,24.2,31.4,19.5,,,,,70.1,
O=C1c2scc(-c3ccc(F)cc3)c2-n2cccc21,> 100,68.6,> 100,87.9,,,91.1,> 100,> 100,> 100,> 100,> 100,> 100,> 100,> 100,> 100,> 100,> 100,> 100,> 100
COc1ccc(-c2c(C#N)c(N)n(C3OCC(O)C(O)C3O)c(=S)c2C#N)cc1 (stereo not drawn),> 100,> 100,> 100,> 100,> 100,,> 100,,> 100,> 100,> 100,> 100,> 100,,> 100,> 100,> 100,> 100,> 100,> 100
CCOC(=O)/C(=C\NC[C@@H](C)O)c1nc2ccccc2[nH]1,> 100,> 100,> 100,> 100,,> 100,> 100,> 100,63.3,,90.4,> 100,> 100,> 100,> 100,> 100,,,> 100,> 100
CC(=O)N1c2ccccc2C2=NN=C(N(C)C)SC21 (stereo not drawn),20,12.5,9.46,6.93,18.8,,12.5,12.9,81.3,5.31,10.4,14.1,7.97,10.1,23.5,7.45,18,11,8.16,10.4
Brc1nc2c3ccccc3ncn2c1Br,> 100,> 100,22.5,> 100,> 100,76.5,> 100,29.8,> 100,> 100,50.9,77.4,> 100,> 100,> 100,,,,> 100,
